# In ChEMBL document CHEMBL1201862, “PubChem BioAssay data set” (2004):
#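 Test compounds were applied to cells in 96-well plates for 48 hours at 5 doses. Abbreviation: GI50, concentration required for 50% inhibition of growth.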 Activity calls are given as the source filed them. Rule as the data show it: active = GI50 up to about 1.1 µM and inactive = higher.
# Tests used:
# Assay in all cases: NCI tumour cell line growth inhibition, 48 h
# HOP-92 = tested on: HOP-92
# NCI-H23 = tested on: NCI-H23
# MOLT-4 = tested on: MOLT-4
# SN12C = tested on: SN12C
# SNB-19 = tested on: SNB-19
# OVCAR-3 = tested on: OVCAR-3
# OVCAR-8 = tested on: OVCAR-8
# NCI-H522 = tested on: NCI-H522
# HCT-116 = tested on: HCT-116
# SR = tested on: SR
# COLO 205 = tested on: COLO 205
# CCRF-CEM = tested on: CCRF-CEM
# TK-10 = tested on: TK-10
# HL-60 = tested on: HL-60
# SNB-75 = tested on: SNB-75
# RXF 393 = tested on: RXF 393
# T47D = tested on: T47D
# MCF7 = tested on: MCF7
# BT-549 = tested on: BT-549
SMILES,GI50 (HOP-92),GI50 (NCI-H23),GI50 (MOLT-4),GI50 (SN12C),GI50 (SNB-19),GI50 (OVCAR-3),GI50 (OVCAR-8),GI50 (NCI-H522),GI50 (HCT-116),GI50 (SR),GI50 (COLO 205),GI50 (CCRF-CEM),GI50 (TK-10),GI50 (HL-60),GI50 (SNB-75),GI50 (RXF 393),GI50 (T47D),GI50 (MCF7),GI50 (BT-549)
COC(=O)C(Cc1nc2ccc(Cl)cc2nc1O)/C(=N\N)C(=O)Nc1cc(C)c(Cl)cc1S(=O)(=O)O (stereo not drawn),24.3 µM (inactive),> 100 µM (inactive),> 100 µM (inactive),> 100 µM (inactive),> 100 µM (inactive),> 100 µM (inactive),> 100 µM (inactive),90.6 µM (inactive),> 100 µM (inactive),99.8 µM (inactive),> 100 µM (inactive),43.1 µM (inactive),,,,,,,
O=c1[nH]c(=O)n(C2CC(O)C(COP(=O)(O)OC3CC(n4cc(F)c(=O)[nH]c4=O)OC3COP(=O)(O)OC3CC(n4cc(F)c(=O)[nH]c4=O)OC3COP(=O)(O)OC3CC(n4cc(F)c(=O)[nH]c4=O)OC3COP(=O)(O)OC3CC(n4cc(F)c(=O)[nH]c4=O)OC3COP(=O)(O)OC3CC(n4cc(F)c(=O)[nH]c4=O)OC3COP(=O)(O)OC3CC(n4cc(F)c(=O)[nH]c4=O)OC3COP(=O)(O)OC3CC(n4cc(F)c(=O)[nH]c4=O)OC3COP(=O)(O)OC3CC(n4cc(F)c(=O)[nH]c4=O)OC3COP(=O)(O)OC3CC(n4cc(F)c(=O)[nH]c4=O)OC3CO)O2)cc1F (stereo not drawn),0.0202 µM (active),0.0502 µM (active),0.0052 µM (active),0.00828 µM (active),0.169 µM (active),,< 0.005 µM (active),0.015 µM (active),0.0109 µM (active),< 0.005 µM (active),0.129 µM (active),,0.493 µM (active),0.0126 µM (active),0.353 µM (active),0.217 µM (active),0.0473 µM (active),< 0.005 µM (active),
O=C1C(c2ccccc2)=[N+]([O-])c2ccccc21,6.79 µM (inactive),19.4 µM (inactive),21.6 µM (inactive),17.3 µM (inactive),19 µM (inactive),13.6 µM (inactive),18.6 µM (inactive),,5.78 µM (inactive),5.6 µM (inactive),16.2 µM (inactive),4.83 µM (inactive),20 µM (inactive),14.9 µM (inactive),17 µM (inactive),,1.97 µM (inactive),1.64 µM (inactive),
Clc1ccc(COC(Cn2ccnc2)c2ccc(Cl)cc2Cl)c(Cl)c1 (stereo not drawn) [MICONAZOLE NITRATE],,8.15 µM (inactive),3.36 µM (inactive),7.96 µM (inactive),15.9 µM (inactive),9.86 µM (inactive),8.39 µM (inactive),8.2 µM (inactive),5.3 µM (inactive),,,5.82 µM (inactive),,3.48 µM (inactive),,,4.57 µM (inactive),14.7 µM (inactive),
Cc1nc2cc(N)c(F)cc2[nH]1,> 100 µM (inactive),> 100 µM (inactive),> 100 µM (inactive),> 100 µM (inactive),> 100 µM (inactive),,> 100 µM (inactive),> 100 µM (inactive),,> 100 µM (inactive),> 100 µM (inactive),> 100 µM (inactive),> 100 µM (inactive),> 100 µM (inactive),,> 100 µM (inactive),,,
CC1CC(C)C(C#N)N(C)c2ccccc21 (stereo not drawn),,> 100 µM (inactive),66.7 µM (inactive),> 100 µM (inactive),> 100 µM (inactive),> 100 µM (inactive),> 100 µM (inactive),,36.5 µM (inactive),25.6 µM (inactive),> 100 µM (inactive),51.8 µM (inactive),> 100 µM (inactive),26.7 µM (inactive),> 100 µM (inactive),6.12 µM (inactive),> 100 µM (inactive),81.3 µM (inactive),
c1csc(-c2csc(-c3cccs3)c2)c1,17.7 µM (inactive),24.3 µM (inactive),28.6 µM (inactive),34.2 µM (inactive),32.4 µM (inactive),29.4 µM (inactive),> 100 µM (inactive),29.4 µM (inactive),21.9 µM (inactive),23.5 µM (inactive),18 µM (inactive),49.2 µM (inactive),67.1 µM (inactive),37.5 µM (inactive),50.5 µM (inactive),6.1 µM (inactive),3.2 µM (inactive),8.85 µM (inactive),
COc1cc2[nH]c(=O)c3cc(C)cc4c(Cl)nc(c1OC)c2c43,35.9 µM (inactive),85.5 µM (inactive),42.8 µM (inactive),,42 µM (inactive),> 100 µM (inactive),95.9 µM (inactive),36.3 µM (inactive),40.1 µM (inactive),,72.6 µM (inactive),27.9 µM (inactive),31.2 µM (inactive),18.8 µM (inactive),22.9 µM (inactive),21 µM (inactive),,32.9 µM (inactive),35 µM (inactive)
O=C1NC2=C(CCCCC/C2=N\O)C12CCCCCC2,> 100 µM (inactive),> 100 µM (inactive),> 100 µM (inactive),> 100 µM (inactive),> 100 µM (inactive),> 100 µM (inactive),> 100 µM (inactive),> 100 µM (inactive),> 100 µM (inactive),> 100 µM (inactive),> 100 µM (inactive),> 100 µM (inactive),> 100 µM (inactive),> 100 µM (inactive),> 100 µM (inactive),> 100 µM (inactive),,,
CC1=NN(c2nc(N)nc(/C(C#N)=C\c3csc([N+](=O)[O-])c3)n2)C(C)(C)C1,54.7 µM (inactive),32.1 µM (inactive),> 100 µM (inactive),,,26.4 µM (inactive),25.1 µM (inactive),21.3 µM (inactive),47.4 µM (inactive),51.1 µM (inactive),,2.23 µM (inactive),34.2 µM (inactive),5.22 µM (inactive),,20.6 µM (inactive),23.7 µM (inactive),35.6 µM (inactive),
COc1cccc(-c2cc(O)c3cc(NC(C)=O)ccc3n2)c1,8.17 µM (inactive),26.8 µM (inactive),5.27 µM (inactive),78 µM (inactive),8.41 µM (inactive),,25.6 µM (inactive),5.11 µM (inactive),,2.34 µM (inactive),22.4 µM (inactive),5.6 µM (inactive),> 100 µM (inactive),,,,,5.65 µM (inactive),> 100 µM (inactive)
COc1cc(C(=O)O[C@H]2CCC3CCC2N3C)cc(OC)c1OC (stereo partly drawn),34.4 µM (inactive),> 100 µM (inactive),> 100 µM (inactive),> 100 µM (inactive),> 100 µM (inactive),,> 100 µM (inactive),,> 100 µM (inactive),> 100 µM (inactive),> 100 µM (inactive),> 100 µM (inactive),> 100 µM (inactive),63.7 µM (inactive),58.9 µM (inactive),> 100 µM (inactive),,> 100 µM (inactive),
COc1ccc(/C=C2\CN(C)C/C(=C\c3ccc(OC)cc3)C2=O)cc1,> 100 µM (inactive),> 100 µM (inactive),> 100 µM (inactive),> 100 µM (inactive),> 100 µM (inactive),> 100 µM (inactive),,> 100 µM (inactive),> 100 µM (inactive),> 100 µM (inactive),> 100 µM (inactive),> 100 µM (inactive),> 100 µM (inactive),> 100 µM (inactive),> 100 µM (inactive),> 100 µM (inactive),> 100 µM (inactive),,
